# Source: publication PMC11785675, “Phase Ib study of the oral PI3Kδ inhibitor linperlisib in patients with advanced solid tumors” (International Journal of Clinical Oncology, 2024)
# What was measured:
# [1] = single-dose 14C-YY-20394 tracer study; cited from earlier work
# [2] = test system: advanced solid tumors; assay: Phase Ib trial of oral linperlisib: efficacy (RECIST 1.1); assay type: in vivo, human; details: 80 mg/day oral;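 also: Open-label single-arm multicenter study in China, once-daily dosing over 28-day cycles, response judged by contrast CT or MRI every 8 weeks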
# Procedure: (§1) This phase Ib, single-arm, open-label, multi-center clinical trial recruited patients with advanced or metastatic solid tumors from eight sites in China.
# (§2) The main exclusion criteria included prior use of PI3K targeted agents and clinically symptomatic central nervous system metastasis or meningeal metastasis.
# (§3) Patients received oral linperlisib 80 mg once per day, taken with warm water either 1 h prior to or 2 h after a meal every day, in a 28-day cycle. Dose adjustments, including holds and reductions, were mandated for grade 3/4 hematologic and grade 3 non-hematologic toxicity. Treatment with linperlisib continued until disease progression, intolerable toxicity, withdrawal of informed consent, death or any other conditions deemed by the investigator to warrant drug discontinuation.
# (§4) Physical examination, assessment of ECOG performance status, clinical laboratory evaluations, electrocardiogram, and other safety evaluations were conducted to assess safety. AEs were graded according to the National Cancer Institute Common Terminology Criteria for Adverse Events (CTCAE), Version 5.0. All AEs were recorded from the time of signing the informed consent to at least 30 days after the last dose, and were followed until resolution or stabilization. Patients underwent radiographic assessments every 8 weeks by enhanced computed tomography or magnetic resonance imaging according to RECIST 1.1.
# (§5) The primary endpoint was safety as assessed by monitoring the frequency, duration, and severity of AEs. Secondary endpoints were efficacy endpoints, including ORR, DCR, and progression-free survival (PFS).
# (§6) Baseline data are presented descriptively. ORR is determined by the proportion of patients who achieve a confirmed complete response (CR) or partial response (PR) as the best overall response, and is presented with CIs. PFS and overall survival (OS) curves are generated using the Kaplan–Meier method. The incidence of AEs and serious AEs (SAEs) are reported as numbers and percentages.
# [3] = test system: relapsed or refractory B-cell hematological malignancies; parameters: method as in PMID 34425850; details: phase Ia, cited from earlier work
# [4] = Phase Ib trial: pharmacokinetics of linperlisib 80 mg once daily; assay type: in vivo, human
# Procedure: Pharmacokinetic analysis included the first 13 patients enrolled in this study who received linperlisib at 80 mg once daily.
# [5] = test system: CT26 cancer model; details: preclinical findings, no reference given; cited from earlier work
# [6] = test system: malignant B cells and primary tumor cell lines; details: preclinical data, no reference given; cited from earlier work
# [7] = test system: patients with advanced solid tumors; details: 80 mg/day oral;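 also: phase Ib open-label single-arm trial, once-daily dosing in 28-day cycles, adverse events graded by NCI CTCAE v5.0, recorded until at least 30 days post last dose, incidence as patient counts and percentages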
# Procedure: as §1, §2, §3, §4, §5, §6
structure (smiles),measurement,setting,value
COc1ncc(-c2nc(N3CCOCC3)nc3c(CN4CCC(C(C)(C)O)CC4)cc(F)cc23)cc1NS(C)(=O)=O [linperlisib],Route of excretion,[1],primarily excreted through the kidneys
same,DCR in patients with thymic carcinoma,[2],50%
same,"DCR, patients with less than three prior lines of therapy",[2],46.3%
same,Progressive disease as best response,[2]; 94 patients,Thirty-nine
same,Stable disease,[2]; 94 patients,34 patients
same,Median progression-free survival (PFS),"[2]; 94 patients, 95% CI 1.79–1.88",1.85 months
same,Median overall survival (OS),"[2]; 94 patients, median follow-up 4.2 months",not reached
same,Complete response (CR) rate,"[2]; 94 patients, one thymoma patient",1.1%
same,Objective response rate (ORR),"[2]; all 94 patients, 95% CI 0.0–5.8",1.1%
same,Disease control rate (DCR),"[2]; all 94 patients, 95% CI 27.5–47.8",37.2%
same,"DCR, anal cancer",[2]; n = 1,1 (100.0) n (%)
same,"DCR, endometrial cancer",[2]; n = 1,0 (0.0) n (%)
same,"DCR, esophageal cancer",[2]; n = 1,0 (0.0) n (%)
same,"DCR, lung neuroendocrine carcinoma",[2]; n = 1,1 (100.0) n (%)
same,"DCR, lung squamous cell carcinoma",[2]; n = 1,0 (0.0) n (%)
same,"DCR, oral cavity cancer",[2]; n = 1,1 (100.0) n (%)
same,"DCR, ovarian cancer",[2]; n = 1,1 (100.0) n (%)
same,"DCR, pancreatic cancer",[2]; n = 1,1 (100.0) n (%)
same,"DCR, parotid carcinoma",[2]; n = 1,0 (0.0) n (%)
same,"DCR, thymoma",[2]; n = 1,1 (100.0) n (%)
same,"ORR, anal cancer",[2]; n = 1,0 (0.0) n (%)
same,"ORR, endometrial cancer",[2]; n = 1,0 (0.0) n (%)
same,"ORR, esophageal cancer",[2]; n = 1,0 (0.0) n (%)
same,"ORR, lung neuroendocrine carcinoma",[2]; n = 1,0 (0.0) n (%)
same,"ORR, lung squamous cell carcinoma",[2]; n = 1,0 (0.0) n (%)
same,"ORR, oral cavity cancer",[2]; n = 1,0 (0.0) n (%)
same,"ORR, ovarian cancer",[2]; n = 1,0 (0.0) n (%)
same,"ORR, pancreatic cancer",[2]; n = 1,0 (0.0) n (%)
same,"ORR, parotid carcinoma",[2]; n = 1,0 (0.0) n (%)
same,"ORR, thymoma",[2]; n = 1,1 (100.0) n (%)
same,"DCR, carcinoma of renal pelvis",[2]; n = 2,1 (50.0) n (%)
same,"DCR, cholangiocarcinoma",[2]; n = 2,0 (0.0) n (%)
same,"DCR, hepatocellular carcinoma",[2]; n = 2,0 (0.0) n (%)
same,"ORR, carcinoma of renal pelvis",[2]; n = 2,0 (0.0) n (%)
same,"ORR, cholangiocarcinoma",[2]; n = 2,0 (0.0) n (%)
same,"ORR, hepatocellular carcinoma",[2]; n = 2,0 (0.0) n (%)
same,"DCR, gallbladder cancer",[2]; n = 3,2 (66.7) n (%)
same,"DCR, nasopharyngeal carcinoma",[2]; n = 3,2 (66.7) n (%)
same,"ORR, gallbladder cancer",[2]; n = 3,0 (0.0) n (%)
same,"ORR, nasopharyngeal carcinoma",[2]; n = 3,0 (0.0) n (%)
same,"DCR, gastric cancer",[2]; n = 4,1 (25.0) n (%)
same,"ORR, gastric cancer",[2]; n = 4,0 (0.0) n (%)
same,"DCR, renal cell carcinoma",[2]; n = 5,2 (40.0) n (%)
same,"ORR, renal cell carcinoma",[2]; n = 5,0 (0.0) n (%)
same,"DCR, lung adenocarcinoma",[2]; n = 6,3 (50.0) n (%)
same,"ORR, lung adenocarcinoma",[2]; n = 6,0 (0.0) n (%)
same,"DCR, breast cancer",[2]; n = 8,1 (12.5) n (%)
same,"ORR, breast cancer",[2]; n = 8,0 (0.0) n (%)
same,"DCR, sarcoma",[2]; n = 9,3 (33.3) n (%)
same,"ORR, sarcoma",[2]; n = 9,0 (0.0) n (%)
same,"DCR, colon cancer",[2]; n = 11,3 (27.3) n (%)
same,"ORR, colon cancer",[2]; n = 11,0 (0.0) n (%)
same,"DCR, rectal cancer",[2]; n = 13,3 (23.1) n (%)
same,"ORR, rectal cancer",[2]; n = 13,0 (0.0) n (%)
same,"DCR, thymic carcinoma",[2]; n = 16,8 (50.0) n (%)
same,"ORR, thymic carcinoma",[2]; n = 16,0 (0.0) n (%)
same,"DCR, lung and mediastinal tumors, total",[2]; n = 25,13 (52.0) n (%)
same,"ORR, lung and mediastinal tumors, total",[2]; n = 25,1 (4.0) n (%)
same,"DCR, other types of tumor, total",[2]; n = 31,11 (35.5) n (%)
same,"ORR, other types of tumor, total",[2]; n = 31,0 (0.0) n (%)
same,"DCR, gastrointestinal tumors, total",[2]; n = 38,11 (28.9) n (%)
same,"ORR, gastrointestinal tumors, total",[2]; n = 38,0 (0.0) n (%)
same,Shrinkage of target lesions,"[2]; thymoma, gallbladder cancer, anal canal squamous cell carcinoma, renal cell carcinoma, renal pelvis cancer",more than 20%
same,Target lesion change in patients with HCC,[2]; two patients with HCC,one of them had shrinkage of target lesions
same,Objective response rate (ORR),"[3]; 20 to 200 mg, 16/25, 95% CI 45.2–82.8",64%
same,Disease control rate (DCR),"[3]; 20 to 200 mg, 18/25, 95% CI 54.4–89.6",72%
same,Dose-limiting toxicities,[3]; highest 200 mg/day dose,no dose-limiting toxicities were observed
same,Accumulation after multiple administrations,[4]; 80 mg once daily,no accumulation was observed
same,Trough levels,"[4]; 80 mg once daily, cycle 1, day 7, range 68.4–232",167.7 ng/mL
same,Accumulation after multiple administrations,"[4]; 80 mg once daily, listed as Linperlisib",no accumulation is observed
same,Absorption after a single dose,[4]; 80 mg oral,rapidly absorbed
same,Vd/F,"[4]; human, plasma, single dose oral 80 mg qd, n = 13, read-out: Vz/F, mean (SD)",251 L
same,AUC(0-t),"[4]; human, single dose oral 80 mg qd, n = 13, plasma, read-out: AUC0-24, mean (SD)",4920 ng·h/mL
same,AUC(0-inf),"[4]; human, single dose oral 80 mg qd, n = 13, plasma, read-out: AUC0-∞, mean (SD)",7260 ng·h/mL
same,Cmax,"[4]; human, single dose oral 80 mg qd, n = 13, plasma, read-out: Cmax, mean (SD)",364 ng/mL
same,MRT,"[4]; human, single dose oral 80 mg qd, n = 13, plasma, read-out: MRT, median (range)",18.9 h
same,half-life,"[4]; human, single dose oral 80 mg qd, n = 13, plasma, read-out: T1/2, mean (SD) (converted)",14.3 h
same,Tmax,"[4]; human, single dose oral 80 mg qd, n = 13, plasma, read-out: Tmax, median (range)",3.9 h
same,"CL/F, mean (SD)","[4]; single dose oral 80 mg qd, n = 13",13.5 (4.9) L/h
same,Tumor volume,[5],reduced tumor volume
same,Apoptosis and proliferation,[6],induce apoptosis and inhibit the proliferation
same,"Incidence of hyperglycemia related to linperlisib, ≥ grade 3",[7],0%
